One test addresses T1, mAOX2 (Mus musculus, UniProt Q5SGK3).
T1 construct: gene Aox2; recombinant from E. coli TP1000 (codon-optimized plasmid pMAOX2co), Ni-NTA and Superdex 200 purified, chemically sulfurated, dimer (300 kDa)
T1 sequence (Q5SGK3 1-1345): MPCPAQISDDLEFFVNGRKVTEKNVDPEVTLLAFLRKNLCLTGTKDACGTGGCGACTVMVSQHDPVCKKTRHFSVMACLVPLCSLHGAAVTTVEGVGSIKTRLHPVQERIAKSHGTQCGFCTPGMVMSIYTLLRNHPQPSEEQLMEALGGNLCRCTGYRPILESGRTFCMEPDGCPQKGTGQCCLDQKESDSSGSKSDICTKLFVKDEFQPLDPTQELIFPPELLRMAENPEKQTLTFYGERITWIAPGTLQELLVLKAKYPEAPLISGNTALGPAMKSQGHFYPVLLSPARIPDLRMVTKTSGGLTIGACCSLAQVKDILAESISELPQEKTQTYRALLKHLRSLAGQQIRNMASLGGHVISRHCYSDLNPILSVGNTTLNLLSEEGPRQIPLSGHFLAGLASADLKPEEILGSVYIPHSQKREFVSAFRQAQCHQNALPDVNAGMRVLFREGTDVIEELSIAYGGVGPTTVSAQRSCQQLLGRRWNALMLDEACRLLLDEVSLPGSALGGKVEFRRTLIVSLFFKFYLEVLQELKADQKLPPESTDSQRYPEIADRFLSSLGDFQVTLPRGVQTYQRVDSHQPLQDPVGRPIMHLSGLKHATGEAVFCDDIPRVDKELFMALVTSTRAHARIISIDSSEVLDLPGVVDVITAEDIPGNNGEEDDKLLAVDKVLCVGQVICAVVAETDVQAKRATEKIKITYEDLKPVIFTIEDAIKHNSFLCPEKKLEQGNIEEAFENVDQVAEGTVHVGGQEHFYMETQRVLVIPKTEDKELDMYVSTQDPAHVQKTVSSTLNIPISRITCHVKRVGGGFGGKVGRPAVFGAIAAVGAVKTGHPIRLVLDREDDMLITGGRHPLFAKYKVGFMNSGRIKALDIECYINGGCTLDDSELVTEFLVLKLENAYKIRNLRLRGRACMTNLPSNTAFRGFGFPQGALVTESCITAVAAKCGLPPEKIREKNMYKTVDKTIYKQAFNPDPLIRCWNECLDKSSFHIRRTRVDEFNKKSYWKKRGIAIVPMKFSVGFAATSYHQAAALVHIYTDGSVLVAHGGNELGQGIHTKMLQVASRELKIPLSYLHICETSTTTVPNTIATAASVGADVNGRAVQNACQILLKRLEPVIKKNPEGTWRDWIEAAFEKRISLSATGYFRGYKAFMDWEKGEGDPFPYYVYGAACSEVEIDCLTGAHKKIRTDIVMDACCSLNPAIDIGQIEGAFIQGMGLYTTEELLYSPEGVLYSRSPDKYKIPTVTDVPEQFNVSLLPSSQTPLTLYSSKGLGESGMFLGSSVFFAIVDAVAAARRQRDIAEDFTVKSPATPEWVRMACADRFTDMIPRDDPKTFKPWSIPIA
The test is described as follows: DCPIP reduction at […] nm, steady-state kinetics. It is filed as biochemical. Conditions: 100 μM DCPIP as electron acceptor, 50 mM Tris-HCl, 1 mM EDTA, pH 8.0, 37°C, corrected to 100% Mo saturation.

The next test addresses T2, mAOX4 (Mus musculus, UniProt Q3TYQ9).
T2 construct: gene Aox4; recombinant from E. coli TP1000 (plasmid pMAOX4), Ni-NTA and Superdex 200 purified, chemically sulfurated, dimer (300 kDa)
T2 sequence (Q3TYQ9 1-1336): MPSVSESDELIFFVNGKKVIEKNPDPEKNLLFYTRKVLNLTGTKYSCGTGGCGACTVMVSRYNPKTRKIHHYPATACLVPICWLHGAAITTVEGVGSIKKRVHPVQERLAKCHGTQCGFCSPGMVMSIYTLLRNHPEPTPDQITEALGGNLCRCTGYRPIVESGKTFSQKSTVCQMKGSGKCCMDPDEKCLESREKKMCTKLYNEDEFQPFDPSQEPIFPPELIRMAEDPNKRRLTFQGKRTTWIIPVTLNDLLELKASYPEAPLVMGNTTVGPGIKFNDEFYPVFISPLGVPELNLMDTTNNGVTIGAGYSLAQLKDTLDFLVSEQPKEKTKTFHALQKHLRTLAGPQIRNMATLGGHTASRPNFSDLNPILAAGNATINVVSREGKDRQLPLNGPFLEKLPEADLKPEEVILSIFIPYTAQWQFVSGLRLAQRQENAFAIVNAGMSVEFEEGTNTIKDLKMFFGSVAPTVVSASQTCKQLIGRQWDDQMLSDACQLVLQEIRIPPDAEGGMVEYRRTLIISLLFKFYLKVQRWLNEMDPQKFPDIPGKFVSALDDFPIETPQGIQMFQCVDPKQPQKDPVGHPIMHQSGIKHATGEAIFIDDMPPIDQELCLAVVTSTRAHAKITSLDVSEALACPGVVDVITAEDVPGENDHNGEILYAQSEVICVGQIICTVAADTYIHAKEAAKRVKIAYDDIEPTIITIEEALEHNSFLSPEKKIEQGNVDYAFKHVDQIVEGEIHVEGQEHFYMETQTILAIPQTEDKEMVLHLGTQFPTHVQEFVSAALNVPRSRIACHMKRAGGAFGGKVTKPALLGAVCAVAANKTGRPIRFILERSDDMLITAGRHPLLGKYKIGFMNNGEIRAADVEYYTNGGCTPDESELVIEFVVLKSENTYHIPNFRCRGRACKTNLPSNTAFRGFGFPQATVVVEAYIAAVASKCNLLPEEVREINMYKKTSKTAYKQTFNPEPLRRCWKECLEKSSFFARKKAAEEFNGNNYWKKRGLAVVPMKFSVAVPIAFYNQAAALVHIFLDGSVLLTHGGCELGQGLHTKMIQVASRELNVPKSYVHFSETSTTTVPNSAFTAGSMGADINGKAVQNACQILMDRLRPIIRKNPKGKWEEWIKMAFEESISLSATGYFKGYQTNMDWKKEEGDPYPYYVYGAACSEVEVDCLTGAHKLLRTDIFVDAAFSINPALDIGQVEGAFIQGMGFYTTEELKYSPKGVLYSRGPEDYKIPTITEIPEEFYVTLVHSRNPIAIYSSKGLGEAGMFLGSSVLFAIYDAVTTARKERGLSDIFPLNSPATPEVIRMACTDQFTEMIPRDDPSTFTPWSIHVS
The test is described as follows: DCPIP reduction at […] nm, steady-state kinetics. In kind it is biochemical. Conditions: 100 μM DCPIP as electron acceptor, 50 mM Tris-HCl, 1 mM EDTA, pH 8.0, 37°C, corrected to 100% Mo saturation.

[1] abbreviates: limit given jointly for mAOX3, mAOX4 and mAOX2.

In article PMC5784979, “Direct comparison of the four aldehyde oxidase enzymes present in mouse gives insight into their substrate specificities” (PLoS ONE, 2018) one finds Km data, which are given here for two compounds.

The Km is the concentration of substrate that gives half-maximal velocity. On to `CC=O` [acetaldehyde], for which the Km on mAOX2 and at mAOX4 was 4.4 to 4.6 mM each time.

Consider `O=Cc1ccc(O)cc1` [4-hydroxybenzaldehyde], for which the Km on mAOX2 (setting [1]) and at mAOX4 (setting [1]) was below 0.002 mM in each case.
